Tests used:
human orexin-2 receptor = molecular target: T1, human orexin-2 receptor (Homo sapiens, UniProt O43614); test: FLIPR Ca2+ flux assay, OX2R; format: cell-based; settings: for IC50: CHO cells expressing the human orexin-2 receptor, agonist 70 pM Ala-6,12 orexin-A; for Fold Selective: OX1R FLIPR / OX2R FLIPR
T1 construct: expressed in transfected cells; host or cells: CHO cells (grown under G418 selection)
T1 sequence (O43614 1-444): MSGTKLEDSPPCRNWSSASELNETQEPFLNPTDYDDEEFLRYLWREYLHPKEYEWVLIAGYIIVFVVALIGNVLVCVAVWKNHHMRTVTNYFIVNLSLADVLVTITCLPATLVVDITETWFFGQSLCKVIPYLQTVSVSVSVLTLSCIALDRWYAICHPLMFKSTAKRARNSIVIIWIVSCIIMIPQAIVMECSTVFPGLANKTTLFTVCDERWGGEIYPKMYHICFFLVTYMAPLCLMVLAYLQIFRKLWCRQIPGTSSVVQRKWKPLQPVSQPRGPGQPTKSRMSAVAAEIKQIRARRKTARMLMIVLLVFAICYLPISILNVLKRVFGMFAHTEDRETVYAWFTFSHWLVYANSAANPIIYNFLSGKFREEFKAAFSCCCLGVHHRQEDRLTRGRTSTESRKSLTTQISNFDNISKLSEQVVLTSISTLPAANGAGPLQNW
Description: (§1) The utility of the compounds in accordance with the present invention as orexin receptor OX1R and/or OX2R antagonists may be readily determined without undue experimentation by methodology well known in the art, including the “FLIPR Ca^2+ Flux Assay” (Okumura et al., Biochem. Biophys. Res. Comm. 280:976-981, 2001). In a typical experiment the OX1 and OX2 receptor antagonistic activity of the compounds of the present invention was determined in accordance with the following experimental method. For intracellular calcium measurements, Chinese hamster ovary (CHO) cells expressing the rat orexin-1 receptor or the human orexin-2 receptor, are grown in Iscove's modified DMEM containing 2 mM L-glutamine, […], 1% hypoxanthine-thymidine supplement, 100 U/ml penicillin, 100 μg/ml streptomycin and 10% heat-inactivated fetal calf serum (FCS). The cells are seeded at 20,000 cells/well into Becton-Dickinson black 384-well clear bottom sterile plates coated with poly-D-lysine. All reagents were from GIBCO-Invitrogen Corp. The seeded plates are incubated overnight at 37° C. and 5% CO2. Ala-6,12 human orexin-A as the agonist is prepared as a 1 mM stock solution in 1% bovine serum albumin (BSA) and diluted in assay buffer (HBSS containing 20 mM HEPES, 0.1% BSA and 2.5 mM probenecid, pH7.4) for use in the assay at a final concentration of 70 pM. Test compounds are prepared as 10 mM stock solution in DMSO, then diluted in 384-well plates, first in DMSO, then assay buffer. On the day of the assay, cells are washed 3 times with 100 μl assay buffer and then incubated for 60 min (37° C., 5% CO2) in 60 μl assay buffer containing 1 μM Fluo-4AM ester, 0.02% pluronic acid, and 1% BSA. The dye loading solution is then aspirated and cells are washed 3 times with 100 μl assay buffer. 30 μl of that same buffer is left in each well. Within the Fluorescent Imaging Plate Reader (FLIPR, Molecular Devices), test compounds are added to the plate in a volume of 25 μl, incubated for 5 min and finally 25 μl of agonist is added. Fluorescence is measured for each well at 1 second intervals for 5 minutes and the height of each fluorescence peak is compared to the height of the fluorescence peak induced by 70 pM Ala-6,12 orexin-A with buffer in place of antagonist. For each antagonist, IC50 value (the concentration of compound needed to inhibit 50% of the agonist response) is determined. Alternatively, compound potency can be assessed by a radioligand binding assay (described in Bergman et. al. Bioorg. Med. Chem. Lett. 2008, 18, 1425-1430) in which the inhibition constant (Ki) is determined in membranes prepared from CHO cells expressing either the OX1 or OX2 receptor. The intrinsic orexin receptor antagonist activity of a compound which may be used in the present invention may be determined by these assays.

rat orexin-1 receptor = molecular target: T2, rat orexin-1 receptor (Rattus norvegicus, UniProt P56718); test: FLIPR Ca2+ flux assay, OX1R; format: cell-based; settings: CHO cells expressing the rat orexin-1 receptor; agonist 70 pM Ala-6,12 orexin-A
T2 construct: expressed in transfected cells; host or cells: CHO cells (grown under G418 selection)
T2 sequence (P56718 1-416): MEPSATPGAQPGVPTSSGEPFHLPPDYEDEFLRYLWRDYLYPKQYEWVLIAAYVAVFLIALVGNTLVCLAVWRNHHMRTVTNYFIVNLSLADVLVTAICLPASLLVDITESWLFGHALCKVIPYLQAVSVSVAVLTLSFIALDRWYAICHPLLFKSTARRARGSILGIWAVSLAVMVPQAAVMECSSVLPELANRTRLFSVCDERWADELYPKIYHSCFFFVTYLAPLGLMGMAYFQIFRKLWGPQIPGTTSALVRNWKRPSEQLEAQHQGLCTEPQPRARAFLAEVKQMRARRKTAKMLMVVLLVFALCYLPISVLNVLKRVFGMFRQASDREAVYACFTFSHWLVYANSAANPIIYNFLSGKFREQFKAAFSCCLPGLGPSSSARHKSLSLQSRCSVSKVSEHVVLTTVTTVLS
Description: as §1

SMILES | IC50 (human orexin-2 receptor) | Fold Selective (human orexin-2 receptor) | IC50 (rat orexin-1 receptor)
Cc1cc(C)nc(N2CC3CC2CN(C(=O)c2cc(F)ccc2C2CC2)C3)n1 (stereo not drawn) [Example 12, 3-[(2-cyclopropyl-5-fluorophenyl)carbonyl]-6-(4,6-dimethylpyrimidin-2-yl)-3,6-diazabicyclo[3.2.1]octane] | 22 nM | 47 | 1040 nM
Cc1cc(C)nc(N2CC3CC2CN(C(=O)c2nccnc2OCC(C)(F)F)C3)n1 (stereo not drawn) [Example 53, (3-(2,2-difluoropropoxy)pyrazin-2-yl)(6-(4,6-dimethylpyrimidin-2-yl)-3,6-diazabicyclo[3.2.1]octan-3-yl)methanone] | 39 nM | 165 | 6450 nM
Cc1cc(C)nc(N2CC3CC2CN(C(=O)c2ccccc2CC(F)F)C3)n1 (stereo not drawn) [Example 36, 3-{[2-(2,2-difluoroethyl)phenyl]carbonyl}-6-(4,6-dimethylpyrimidin-2-yl)-3,6-diazabicyclo[3.2.1]octane] | 15 nM | 139 | 2090 nM
Cc1cc(C)nc(N2CC3CC2CN(C(=O)c2nccnc2OCC(F)(F)F)C3)n1 (stereo not drawn) [Example 50, 6-(4,6-dimethylpyrimidin-2-yl)-3-{[3-(2,2,2-trifluoroethoxy)pyrazin-2-yl]carbonyl}-3,6-diazabicyclo[3.2.1]octane] | 36 nM | >278 | > 10000 nM
Cc1cc(C)nc(N2CC3CC2CN(C(=O)c2cccc(F)c2C2CC2)C3)n1 (stereo not drawn) [Example 24, (2-cyclopropyl-3-fluorophenyl)(6-(4,6-dimethylpyrimidin-2-yl)-3,6-diazabicyclo[3.2.1]octan-3-yl)methanone] | 17 nM | 44 | 743 nM
Cc1cc(C)nc(N2CC3CC2CN(C(=O)c2ccc(F)cc2C2CC2)C3)n1 (stereo not drawn) [Example 14, 3-[(2-cyclopropyl-4-fluorophenyl)carbonyl]-6-(4,6-dimethylpyrimidin-2-yl)-3,6-diazabicyclo[3.2.1]octane] | 26 nM | 56 | 1450 nM
Cc1cc(C)nc(N2CC3CC2CN(C(=O)c2nccnc2OCC(F)(F)C(F)F)C3)n1 (stereo not drawn) [Example 51, (6-(4,6-dimethylpyrimidin-2-yl)-3,6-diazabicyclo[3.2.1]octan-3-yl)(3-(2,2,3,3-tetrafluoropropoxy)pyrazin-2-yl)methanone] | 24 nM | 112 | 2690 nM
CSc1ccccc1C(=O)N1CC2CC(C1)N(c1nc(C)cc(C)n1)C2 (stereo not drawn) [Example 17, 6-(4,6-dimethylpyrimidin-2-yl)-3-{[2-(methylsulfanyl)-phenyl]carbonyl}-3,6-diazabicyclo[3.2.1]octane] | 27 nM | 92 | 2470 nM
Cc1cc(C)nc(N2CC3CC2CN(C(=O)c2cccnc2OCC(C)O)C3)n1 (stereo not drawn) [Example 45, 1-[(3-{[6-(4,6-dimethylpyrimidin-2-yl)-3,6-diazabicyclo[3.2.1]oct-3-yl]carbonyl}pyridin-2-yl)oxy]propan-2-ol] | 90 nM | >111 | > 10000 nM

Other lines, results leading:

IC50 (human orexin-2 receptor) | Fold Selective (human orexin-2 receptor) | IC50 (rat orexin-1 receptor) | SMILES
37 nM | 103 | 3830 nM | Cc1cc(C)nc(N2CC3CC2CN(C(=O)c2nccnc2OCC2CC2)C3)n1 (stereo not drawn) [Example 48, (3-(cyclopropylmethoxy)pyrazin-2-yl)(6-(4,6-dimethylpyrimidin-2-yl)-3,6-diazabicyclo[3.2.1]octan-3-yl)methanone]
90 nM | >111 | > 10000 nM | Cc1cc(C)nc(N2CC3CC2CN(C(=O)c2cccnc2-n2nccn2)C3)n1 (stereo not drawn) [Example 31, 6-(4,6-dimethylpyrimidin-2-yl)-3-{[2-(2H-1,2,3-triazol-2-yl)pyridin-3-yl]carbonyl}-3,6-diazabicyclo[3.2.1]octane]
14 nM | 61 | 851 nM | Cc1cc(C)nc(N2CC3CC2CN(C(=O)c2ccccc2OCC(F)F)C3)n1 (stereo not drawn) [Example 37, 3-{[2-(2,2-difluoroethoxy)-phenyl]carbonyl}-6-(4,6-dimethylpyrimidin-2-yl)-3,6-diazabicyclo[3.2.1]octane]
47 nM | >213 | > 10000 nM | Cc1cc(C)nc(N2CC3CC2CN(C(=O)c2ccccc2CS(C)(=O)=O)C3)n1 (stereo not drawn) [Example 28, 6-(4,6-dimethylpyrimidin-2-yl)-3-({2-[(methylsulfonyl)methyl]phenyl}carbonyl)-3,6-diazabicyclo[3.2.1]octane]
18 nM | 148 | 2670 nM | Cc1cc(C)nc(N2CC3CC2CN(C(=O)c2cccnc2OC(C)C)C3)n1 (stereo not drawn) [Example 21, 6-(4,6-dimethylpyrimidin-2-yl)-3-{[2-(1-methylethoxy)pyridin-3-yl]carbonyl}-3,6-diazabicyclo[3.2.1]octane]
36 nM | 44 | 1600 nM | Cc1cc(C)nc(N2CC3CC2CN(C(=O)c2ccccc2-n2ncnn2)C3)n1 (stereo not drawn) [Example 19, 6-(4,6-dimethylpyrimidin-2-yl)-3-{[2-(2H-tetrazol-2-yl)phenyl]carbonyl}-3,6-diazabicyclo[3.2.1]octane]
41 nM | 87 | 3550 nM | COc1ccc(C(=O)N2CC3CC(C2)N(c2nc(C)cc(C)n2)C3)c(C2CC2)n1 (stereo not drawn) [Example 13, 3-[(2-cyclopropyl-6-methoxypyridin-3-yl)carbonyl]-6-(4,6-dimethylpyrimidin-2-yl)-3,6-diazabicyclo[3.2.1]octane]
16 nM | 61 | 982 nM | Cc1cc(C)nc(N2CC3CC2CN(C(=O)c2ccccc2OC(C)C)C3)n1 (stereo not drawn) [Example 16, 6-(4,6-dimethylpyrimidin-2-yl)-3-{[2-(1-methylethoxy)-phenyl]carbonyl}-3,6-diazabicyclo[3.2.1]octane]
5 nM | 41 | 206 nM | Cc1cc(C)nc(N2CC3CC2CN(C(=O)c2cccnc2OCC(F)(F)C(F)F)C3)n1 (stereo not drawn) [Example 43, 6-(4,6-dimethylpyrimidin-2-yl)-3-{[2-(2,2,3,3-tetrafluoropropoxy)pyridin-3-yl]carbonyl}-3,6-diazabicyclo[3.2.1]octane]
13 nM | 86 | 1120 nM | Cc1cc(C)nc(N2CC3CC2CN(C(=O)c2ccccc2C2(C#N)CC2)C3)n1 (stereo not drawn) [Example 29, 1-(2-{[6-(4,6-dimethylpyrimidin-2-yl)-3,6-diazabicyclo[3.2.1]oct-3-yl]carbonyl}-phenyl)-cyclopropanecarbonitrile]
16 nM | 41 | 648 nM | Cc1cc(C)nc(N2CC3CC2CN(C(=O)c2cccnc2OCC(C)C)C3)n1 (stereo not drawn) [Example 40, 6-(4,6-dimethyl-pyrimidin-2-yl)-3-{[2-(2-methylpropoxy)pyridin-3-yl]carbonyl}-3,6-diazabicyclo[3.2.1]octane]
